# Results published in ChEMBL document CHEMBL3813700, “New halogenated tris-(phenylalkyl)amines as h5-HT2B receptor ligands” (Bioorg Med Chem Lett, 2016).
# Tests used:
# [1] = target: 5-hydroxytryptamine receptor 2A (Homo sapiens, UniProt P28223); assay: Displacement of [3H]ketanserin from human 5-HT2A receptor measured after 90 mins by microbeta scintillation counting method
# [2] = target: T1, 5-hydroxytryptamine receptor 2B (Homo sapiens, UniProt P41595); assay: Displacement of [3H]LSD from human 5-HT2B receptor measured after 90 mins by microbeta scintillation counting method
# [3] = target: T2, 5-hydroxytryptamine receptor 2C (Homo sapiens, UniProt P28335); assay: Displacement of [3H]mesulergine from human 5-HT2C receptor measured after 90 mins by microbeta scintillation counting method
# T2 sequence (P28335 whole entry): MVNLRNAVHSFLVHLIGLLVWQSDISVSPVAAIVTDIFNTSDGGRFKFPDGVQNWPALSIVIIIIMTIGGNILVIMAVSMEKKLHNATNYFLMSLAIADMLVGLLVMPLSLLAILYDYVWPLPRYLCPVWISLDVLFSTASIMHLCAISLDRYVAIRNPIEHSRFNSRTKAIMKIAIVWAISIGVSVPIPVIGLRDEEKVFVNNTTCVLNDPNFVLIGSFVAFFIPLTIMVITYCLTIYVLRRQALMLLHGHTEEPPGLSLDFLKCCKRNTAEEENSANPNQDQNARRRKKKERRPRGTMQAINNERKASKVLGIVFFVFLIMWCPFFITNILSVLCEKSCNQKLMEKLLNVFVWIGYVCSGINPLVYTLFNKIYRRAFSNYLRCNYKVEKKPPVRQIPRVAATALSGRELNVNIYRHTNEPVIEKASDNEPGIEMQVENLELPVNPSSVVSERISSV
# [4] = organism: Homo sapiens; assay: Selectivity index, ratio of Ki for human 5-HT2A receptor to Ki for human 5-HT2B receptor
# [5] = organism: Homo sapiens; assay: Selectivity index, ratio of Ki for human 5-HT2C receptor to Ki for human 5-HT2B receptor
# [6] = target: T1, 5-hydroxytryptamine receptor 2B; assay: Antagonist activity at human 5-HT2B receptor by PDSP assay
# T1 sequence (P41595 whole entry): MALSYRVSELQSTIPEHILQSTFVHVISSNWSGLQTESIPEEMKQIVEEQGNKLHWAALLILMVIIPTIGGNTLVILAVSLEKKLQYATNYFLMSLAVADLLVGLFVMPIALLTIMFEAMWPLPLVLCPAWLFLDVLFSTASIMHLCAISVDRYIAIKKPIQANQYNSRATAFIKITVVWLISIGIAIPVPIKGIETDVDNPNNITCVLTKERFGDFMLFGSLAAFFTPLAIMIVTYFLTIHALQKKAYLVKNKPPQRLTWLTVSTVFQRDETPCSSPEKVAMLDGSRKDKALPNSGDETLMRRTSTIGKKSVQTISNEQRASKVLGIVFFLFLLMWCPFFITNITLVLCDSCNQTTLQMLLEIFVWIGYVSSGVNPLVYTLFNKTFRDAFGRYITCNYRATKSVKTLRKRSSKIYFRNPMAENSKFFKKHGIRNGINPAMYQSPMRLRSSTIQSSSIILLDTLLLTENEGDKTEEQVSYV
# Sequence of 5-hydroxytryptamine receptor 2A (P28223 whole entry): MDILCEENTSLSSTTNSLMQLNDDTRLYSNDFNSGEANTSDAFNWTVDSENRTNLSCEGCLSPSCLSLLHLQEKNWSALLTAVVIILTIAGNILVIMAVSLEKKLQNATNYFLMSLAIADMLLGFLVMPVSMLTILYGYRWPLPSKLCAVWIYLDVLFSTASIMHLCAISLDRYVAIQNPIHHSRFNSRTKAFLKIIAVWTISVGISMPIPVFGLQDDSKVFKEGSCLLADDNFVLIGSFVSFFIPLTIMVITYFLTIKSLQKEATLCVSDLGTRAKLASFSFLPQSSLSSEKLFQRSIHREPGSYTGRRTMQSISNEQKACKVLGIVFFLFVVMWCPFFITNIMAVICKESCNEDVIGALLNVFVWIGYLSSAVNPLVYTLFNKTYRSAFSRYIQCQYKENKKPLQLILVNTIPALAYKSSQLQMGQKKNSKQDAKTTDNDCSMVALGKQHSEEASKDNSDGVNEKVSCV
Compound,Ki [1] [nM],Ki [2] [nM],Ki [3] [nM],Ratio Ki [4],Ratio Ki [5],IC50 [6] [nM]
COc1ccc(CCN(CCCc2ccccc2Br)CCc2ccc3c(c2)OCO3)cc1OC,54,3.4,124,16,36,326
COc1ccc(CCN(CCCc2ccc(Cl)cc2)CCc2ccc3c(c2)OCO3)cc1OC,365,54,235,7,4,–
Cn1ccc2cc(NC(=O)Nc3cccnc3)ccc21,–,21,–,–,–,–
COc1ccc(CCN(CCCc2ccccc2Cl)CCc2ccc3c(c2)OCO3)cc1OC,43,3.1,92,14,30,99
COc1ccc(CCN(CCCc2ccccc2I)CCc2ccc3c(c2)OCO3)cc1OC,75,13,68,6,5,–
COc1ccc(CCN(CCCc2ccc(I)cc2)CCc2ccc3c(c2)OCO3)cc1OC,288,51,224,6,4,–
COc1ccc(CCN(CCCc2ccc(Br)cc2)CCc2ccc3c(c2)OCO3)cc1OC,221,45,219,5,5,–

# More lines, now with the values ahead:
Ki [1] [nM],Ki [2] [nM],Ki [3] [nM],Ratio Ki [4],Ratio Ki [5],IC50 [6] [nM],Compound
185,14,126,13,9,–,COc1ccc(CCN(CCCc2ccc(F)cc2)CCc2ccc3c(c2)OCO3)cc1OC
125,17,206,7,12,–,COc1ccc(CCN(CCCc2cccc(Cl)c2)CCc2ccc3c(c2)OCO3)cc1OC
103,14,143,7,10,–,COc1ccc(CCN(CCCc2cccc(Br)c2)CCc2ccc3c(c2)OCO3)cc1OC
65,1.7,79,38,46,135,COc1ccc(CCN(CCCc2ccccc2F)CCc2ccc3c(c2)OCO3)cc1OC
185,18,167,10,9,–,COc1ccc(CCN(CCCc2cccc(F)c2)CCc2ccc3c(c2)OCO3)cc1OC
169,18,154,9,9,–,COc1ccc(CCN(CCCc2cccc(I)c2)CCc2ccc3c(c2)OCO3)cc1OC
–,–,–,6,15,–,COc1ccc(CCN(CCCc2ccccc2)CCc2ccc3c(c2)OCO3)cc1OC
